# Measured values from article PMC5750217 (Nature Communications, 2018).
# Where a chain is given by its changes, count along the chain named. In names and notes the source's numbering stands. Several values for one entry are separate records, joined by “and”; a condition that tells them apart may be missing. Identical values can stand only once. Like-named read-outs stand apart in the source and are kept apart here.
# B1: GltPh-R397C (natural protein, Pyrococcus horikoshii)
# chain: MGLYRKYIEYPVLQKILIGLILGAIVGLILGHYGYADAVKTYVKPFGDLFVRLLKMLVMPIVFASLVVGAASISPARLGRVGVKIVVYYLLTSAFAVTLGIIMARLFNPGAGIHLAVGGQQFQPKQAPPLVKILLDIVPTNPFGALANGQVLPTIFFAIILGIAITYLMNSENEKVRKSAETLLDAINGLAEAMYKIVNGVMQYAPIGVFALIAYVMAEQGVKVVGELAKVTAAVYVGLTLQILLVYFVLLKIYGIDPISFIKKAKDAMLTAFVTRSSSGTLPVTMRVAKEMGISEGIYSFTLPLGATINMDGTALYQGVCTFFIANALGSHLTVGQQLTIVLTAVLASIGTAGVPGAGAIMLAMVLESVGLPLTDPNVAAAYAMILGIDAILDMGCTMVNVTGDLTGTAIVAKTEG
# notes: GltPh of Pyrococcus horikoshii, wild-type background, with the point mutation R397C; Crystallised with L-cysteine, L-serine or benzylcysteine (5 mM each); source: E. coli Top10, purified (Ni-NTA, thrombin digestion, Superdex 200 SEC in detergent); not shown: His6, N-terminal, cleaved
# B2: wild-type GltPh, aspartate transporter from Pyrococcus horikoshii (natural protein)
# chain: B1 chain with C397R
# notes: GltPh, Na+-dependent aspartate transporter of the archaeon Pyrococcus horikoshii; wild-type background (not the seven-histidine mutant CAT-7); Crystallised with L-aspartate and Na+ in n-decyl-maltopyranoside; Three protomers in the asymmetric unit (threefold NCS); also called Wt; source: E. coli Top10, purified (Ni-NTA, thrombin digestion, Superdex 200 SEC in detergent); not shown: His6, …
# Experiments:
# [1] = molecular target: T1, GltPh-R397C (Pyrococcus horikoshii, UniProt O59010, R397C); assay: biochemical; type: binding
# T1 construct: hexa-His (N, cleaved yes); made in house; host or cells: Escherichia coli Top10 (pBAD)
# T1 sequence (O59010 whole entry R397C): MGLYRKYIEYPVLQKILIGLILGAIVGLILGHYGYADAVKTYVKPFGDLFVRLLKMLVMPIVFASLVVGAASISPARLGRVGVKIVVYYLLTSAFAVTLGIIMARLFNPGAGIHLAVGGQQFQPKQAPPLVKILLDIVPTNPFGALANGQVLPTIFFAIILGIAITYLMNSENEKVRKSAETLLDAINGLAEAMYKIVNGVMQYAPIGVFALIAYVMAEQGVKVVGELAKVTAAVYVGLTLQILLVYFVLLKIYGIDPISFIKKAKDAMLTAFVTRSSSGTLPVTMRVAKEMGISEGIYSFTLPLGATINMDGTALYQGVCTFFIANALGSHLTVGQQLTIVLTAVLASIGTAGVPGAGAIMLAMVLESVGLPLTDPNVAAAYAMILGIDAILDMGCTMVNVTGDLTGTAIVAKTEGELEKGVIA
# Description: Fluorescence-based binding assays were performed by titrating purified protein (50 μg per ml) in 20 mM HEPES/Tris, pH 7.4, 200 mM choline chloride, 0.4 mM n-dodecyl^−β-D-maltopyranoside, 200 nM styryl fluorescent dye RH421 (Invitrogen, Inc., Grand Island, NY) with NaCl, L-ser, L-cys or benzylcysteine at 25 °C[51]. The RH421 dye was excited at 532 nm, and the fluorescence was collected at 628 nm using a QuantaMaster (Photon International Technology, Inc., Edison, NJ). Fluorescence emissions were measured after at least 10 min equilibration to ensure a stabilised signal. The data were analysed using GraphPad Prism version 6.0 for Mac (GraphPad Software, La Jolla California USA). Fractional fluorescence changes were normalised to maximal fluorescence changes, then plotted as a function of ligand concentration and fitted to the Hill equation. All the experiments were performed at least in triplicate.
# Analysis of ligand binding data. The voltage sensitive amphipathic dye RH421 reports on Na+ binding to purified GltPh protein in detergent3. RH421 was used to follow Na+ binding to GltPh‐R397C protein either alone or in reactions coupled to binding of amino acids. […]
# Coupled ions and amino acid binding was probed by titrating amino acids to the GltPh‐R397C protein in the presence of 10 – 100 mM Na+ ions. The obtained isotherms were analyzed to estimate an apparent number of Na+ ions coupled to binding of the amino acids.
# Raw data were first normalized by the initial fluorescence of RH421 and plotted as fraction of fluorescence change (Supplementary […]
# total amount of dye and detergent in the assay buffer.
# To take into account significant amino acid‐independent Na+ binding, the sets of binding isotherms obtained at variable Na+ concentrations were fitted globally to a simplified binding equation: […]
# KD,a is the combined dissociation constant for coupled Na+ and ligand binding and n is the apparent number of coupled ions. Fraction of the protein bound to either Na+ ions alone or to the ions and the […]
# Fraction of the protein already bound to Na+ ions before ligand addition is: […]
# Fractional fluorescence change Y is fitted to an equation: […]
# where Y0 and ∆Y are, respectively, baseline and the signal difference between fully bound and apo […]
# KD,a and n were fitted globally for each ligand. Y0 and ∆Y were adjusted for each isotherm independently. […]
# individual isotherm to a standard Hill equation, plotted the apparent dissociation constants as functions of Na+ concentrations and compared the values to those predicted using the parameters from the global fits (Supplementary Figure 8).
# [2] = molecular target: T1, GltPh-R397C; assay: biochemical
# Description: (§1) Mutant and wild-type GltPh with an amino-terminal hexa-His tag were expressed in Escherichia coli Top10 cells (Invitrogen), which were grown in Luria broth medium at 37 °C. Ampicillin was added to a final concentration of 100 μg per ml. To induce expression of GltPh, 0.1% L-arabinose was added when cells reached an optical density of 0.6 at 660 nm, and cells were harvested 4 h post induction. Membranes were isolated, and then solubilised with n-dodecyl-β-D-maltopyranoside (C12M, Anatrace). Histidine containing proteins were purified using Ni^2+−nitrilotriacetic acid resin (Qiagen). The histidine tag was subsequently removed from GltPh by digestion with thrombin (10 U per mg protein) and the protein further purified on a Superdex 200 size exclusion column, where the detergent was exchanged to n-decyl-β-D-maltopyranoside (C10M, Anatrace).
# (§2) Pure protein was reconstituted into liposomes composed of 75% E. coli Polar Lipid Extract and 25% 1-palmitoyl-2-oleoyl-sn-glycero-3 ^−phopshocholine (Avanti Polar Lipids). Lipids were mixed, dried under nitrogen and resuspended in internal buffer (100 mM KCl, 20 mM HEPES-Tris pH 7.5) using brief sonication (Laboratory Supplies Co.). The lipid suspension was frozen in liquid nitrogen and thawed at room temperature several times. Liposomes were formed by extrusion through 400 nm polycarbonate membranes (Avanti Polar Lipids) and were treated with Triton X-100 at a 0.5:1 (w/w) detergent to lipid ratio prior to the addition of protein at 0.25 μg protein per mg lipid. The protein/lipid mixture was left at room temperature for 30 min before detergent was removed using SM2 Biobeads (BioRad). The mixture was then incubated with gentle agitation, with four consecutive batches of Biobeads (80 mg per ml). Proteoliposomes were concentrated by centrifugation at 150,000 g for 30 min, resuspended at 100 mg lipid per ml and either used immediately or flash-frozen in liquid nitrogen and stored at −80 °C.
# (§3) Mutant and wild-type GltPh-mediated transport of radiolabelled substrate was assayed by diluting proteoliposomes (100 mg lipid per ml) 133-fold into uptake buffer (100 mM NaCl, 20 mM HEPES-Tris pH 7.5, 1 μM valinomycin, 100 nM–1 µM L-[^3H]substrate) pre-warmed to 30 °C. At each time point, a 200 µl aliquot was removed and diluted 10-fold into ice-cold quench buffer (100 mM LiCl, 20 mM HEPES-Tris pH 7.5), followed by immediate filtration over nitrocellulose filters (0.22 μm pore size, Millipore). The filters were washed with ice-cold quench buffer and assayed for radioactivity using a Trilux beta counter (PerkinElmer). To establish substrate concentration–response curves, extraliposomal L-[^3H]substrate was varied between 500 nM and 100 µM, maintaining NaCl concentrations at 300 mM. For inhibitor concentration–response curves, for wild-type GltPh 100 nM L-[^3H]aspartate, and for mutant GltPh 1 µM L-[^3H]serine, was co-applied with varying inhibitor concentrations. Background levels of uptake were measured by diluting proteoliposomes into internal buffer (100 mM KCl, 20 mM HEPES-Tris pH 7.5) containing 1 µM of valinomycin and the indicated concentrations of L-[^3H]substrate.
# Supplementary Figure 6. GltPh‐R397C, ASCT1 and ASCT2 are functional cysteine transporters. (a) Purified GltPh‐R397C was reconstituted into liposomes and 10µM 35S‐cysteine transport was measured over 10 minutes alone or in the presence of 1 mM dithiothreitol (DTT). Background levels of uptake were measured by diluting proteoliposomes into internal buffer (100 mM KCl, 20 mM HEPES‐Tris pH 7.5) containing 1 µM of valinomycin and the 10µM 35S‐cysteine. […]
# (c) Neutral amino acid exchange in GltPh‐R397C. Counterflow experiments in which Na+ and amino acid loaded liposomes were used to detect the transport of a range of unlabelled neutral amino acids by exchanging with external 3H‐serine. Counterflow assays were performed using liposomes containing 200mM NaCl, 20 mM HEPES/Tris pH 7.5, and 1 mM of unlabelled amino acid as indicated. […]
# [3] = molecular target: T2, GltPh-G396S/R397C (Pyrococcus horikoshii, UniProt O59010, G396S/R397C); assay: biochemical; type: biochemical; conditions: for Reduction of L-[3H]serine transport by unlabelled competitor (in words): GltPh-R397C/G396S, 10 µM L-[3H]serine, 100-fold excess unlabelled amino acid
# T2 construct: hexa-His (N, cleaved yes); made in house; host or cells: Escherichia coli Top10 (pBAD)
# T2 sequence (O59010 whole entry G396S/R397C): as the sequence (O59010 whole entry R397C) above, with G396S counted along it
# Description: as §1, §2, §3
# [4] = molecular target: T3, wild-type GltPh (Pyrococcus horikoshii, UniProt O59010); assay: Proteoliposome transport assay, wild-type GltPh; type: biochemical
# T3 construct: hexa-His (N, cleaved yes); made in house; host or cells: Escherichia coli Top10 (pBAD)
# T3 sequence (O59010 1-425): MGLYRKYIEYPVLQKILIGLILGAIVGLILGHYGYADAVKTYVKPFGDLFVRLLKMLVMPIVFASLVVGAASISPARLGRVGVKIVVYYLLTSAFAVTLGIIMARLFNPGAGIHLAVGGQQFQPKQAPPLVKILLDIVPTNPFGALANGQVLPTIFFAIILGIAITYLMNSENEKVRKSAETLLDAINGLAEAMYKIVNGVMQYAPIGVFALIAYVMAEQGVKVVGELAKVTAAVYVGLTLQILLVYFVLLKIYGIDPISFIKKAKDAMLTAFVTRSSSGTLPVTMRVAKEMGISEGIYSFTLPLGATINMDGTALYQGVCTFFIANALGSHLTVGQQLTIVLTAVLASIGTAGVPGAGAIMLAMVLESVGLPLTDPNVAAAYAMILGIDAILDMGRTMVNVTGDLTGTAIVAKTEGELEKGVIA
# Description: as §1, §2, §3
# [5] = tested on: ASCTs; parameters: method as in PMID 9463476; conditions: quoted in discussion; cited from earlier work
# [6] = molecular target: T1, GltPh-R397C; type: biochemical; conditions: 100 nM L-[3H]aspartate, 1 µM L-[3H]glutamine, 10 µM 35S-cysteine ± 1 mM DTT, Na+ gradient
# [7] = molecular target: T3, wild-type GltPh; conditions: published values, cited from earlier work
# [8] = tested on: glutamate transporters; parameters: method as in PMID 9463476; conditions: quoted in discussion; cited from earlier work
# [9] = molecular target: the molecule itself; assay: crystal structure; hanging-drop vapour diffusion at 4 °C, protein ~7 mg per ml in n-decyl-maltopyranoside, 15-21% PEG1000, 0.1 M LiSO4, 0.05 M citric acid, 0.05 M Na2HPO4; space group P61; refined with threefold NCS restraints; with L-aspartate (wild type) or 5 mM L-cysteine, L-serine or benzylcysteine (R397C)
# [10] = GltPh-G396S/R397C, 1 µM L-[3H]serine, read-out: IC50 for inhibition of L-[3H]serine transport
molecule,measurement,setting,value
N[C@@H](CSCc1ccccc1)C(=O)O,Kd,[1],1000 ± 300 µM
same,Apparent number of Na+ ions coupled to binding (n),"[1]; GltPh-R397C, global fit of isotherms at 10–100 mM Na+, 25 °C",0.8 ± 0.04
same,IC50 for inhibition of L-[3H]serine transport,"[2]; GltPh-R397C, 1 µM L-[3H]serine",reduced affinity compared with benzylserine
same,IC50,[3],280 ± 60 µM
same,IC50 for inhibition of L-[3H]aspartate transport,[4]; 100 nM L-[3H]aspartate,ineffective
same,Affinity for the ASCTs,[5],~ 1 mM
C[C@H](N)C(=O)O [L-alanine],EC50,[2],14 ± 3 µM
same,EC50,[3],4 ± 0.2 µM
same,Transport of radiolabelled substrate into proteoliposomes (in words),"[4]; 1 µM L-[3H]substrate, Na+ gradient, pH 7.5",not transported
N[C@@H](CC(=O)O)C(=O)O [L-aspartate],Transport of radiolabelled substrate into proteoliposomes (in words),"[3]; GltPh-G396S/R397C, 100 nM L-[3H]aspartate, 1 µM L-[3H]glutamine, Na+ gradient, pH 7.5",does not effectively transport
same,Transport of radiolabelled substrate into proteoliposomes (in words),[6],no longer capable of transporting
CSCC[C@H](N)C(=O)O [L-methionine],Reduction of L-[3H]serine transport by unlabelled competitor (in words),[3],to a similar extent
CC(C)[C@H](N)C(=O)O [L-valine],Reduction of L-[3H]serine transport by unlabelled competitor (in words),[3],to a similar extent
[Na+] [Na+],Hill coefficient nNa of Na+ binding in the absence of amino acids,[1]; GltPh-R397C,1.2 and 1.2 ± 0.1
same,Kd,"[1]; GltPh-R397C, Hill fit, read-out: KD,Na of Na+ binding in the absence of amino acids",38000 µM
same,Kd,"[7]; ref Reyes et al., 2013, read-out: KD,Na of Na+ binding",99300 µM
same,nNa of Na+ binding,"[7]; ref Reyes et al., 2013",1.6
"N[C@H](C(=O)O)[C@H](OCc1ccccc1)C(=O)O [TBOA, L-threo-β-oxybenzylaspartic acid]",IC50 for inhibition of L-[3H]serine transport,"[2]; GltPh-R397C, 1 µM L-[3H]serine",poorly inhibited
same,IC50,[3]; [10],500 ± 200 µM
same,IC50,"[4]; 100 nM L-[3H]aspartate, read-out: IC50 for inhibition of L-[3H]aspartate transport",2 ± 1 µM
same,Affinity for the glutamate transporters,[8],~ 50 μM
N[C@@H](COCc1ccccc1)C(=O)O [benzylserine],IC50,"[2]; GltPh-R397C, 1 µM L-[3H]serine, read-out: IC50 for inhibition of L-[3H]serine transport",110 ± 10 µM
same,IC50,[3]; [10],120 ± 20 µM
same,IC50 for inhibition of L-[3H]aspartate transport,[4]; 100 nM L-[3H]aspartate,ineffective
same,Affinity for the ASCTs,[5],~ 1 mM
B1,stoichiometry N,[9],3
B2,binding result,[9],binds
